ChEMBL document CHEMBL1126164, “SR 46559 A and related aminopyridazines are potent muscarinic agonists with no cholinergic syndrome” (Bioorg Med Chem Lett, 1992)
Positions count from the first letter of the chain named. Activity calls are given as the source filed them. No cut-off for these calls is given here.

Columns and labels:
[1] = target: T1, Muscarinic acetylcholine receptor M1 (Rattus norvegicus, UniProt P08482); assay: Displacement of [3H]pirenzepine from cerebral Muscarinic acetylcholine receptor M1
T1 sequence (P08482 whole entry): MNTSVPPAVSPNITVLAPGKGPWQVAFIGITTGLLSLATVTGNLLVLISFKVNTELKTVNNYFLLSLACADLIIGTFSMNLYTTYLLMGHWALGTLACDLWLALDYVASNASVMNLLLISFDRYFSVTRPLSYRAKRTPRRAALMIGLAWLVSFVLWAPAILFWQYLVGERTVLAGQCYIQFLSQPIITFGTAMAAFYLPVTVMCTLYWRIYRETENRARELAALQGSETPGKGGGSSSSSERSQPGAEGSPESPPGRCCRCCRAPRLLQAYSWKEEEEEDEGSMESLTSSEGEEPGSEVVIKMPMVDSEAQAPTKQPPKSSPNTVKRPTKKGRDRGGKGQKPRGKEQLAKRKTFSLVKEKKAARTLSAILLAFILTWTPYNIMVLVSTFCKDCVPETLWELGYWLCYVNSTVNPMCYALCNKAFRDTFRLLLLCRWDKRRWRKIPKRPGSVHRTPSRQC

Mus musculus [2] = assay: Percent inhibition of the number of pirenzepine-induced rotations in mice, on oral administration (3 mg/kg) 4 hr before the test; Inactive; format: functional, organism-based
Mus musculus [3] = assay: Percent inhibition of the number of pirenzepine-induced rotations in mice, on oral administration(0.3 mg/kg) 4 hr before the test; Inactive; format: functional, organism-based
Mus musculus [4] = assay: Percent inhibition of the number of pirenzepine-induced rotations in mice, on orally administration (0.3 mg/kg) 4 hr before the test; format: functional
[5] = (§1) Lethal dose in mice after oral administration; format: toxicity; settings: mouse, in vivo
Mus musculus [6] = assay: Percent inhibition of the number of pirenzepine-induced rotations in mice, on oral administration (3 mg/kg) 4 hr before the test; format: functional
Mus musculus [7] = species on record: Mus musculus; assay: Effective dose required to antagonize pirenzepine-induced deficit in passive avoidance learning.; format: functional
Mus musculus [8] = species on record: Mus musculus; assay: Effective dose required to antagonize rotations induced in mice by intrastriatal injection of pirenzepine.; format: functional
Mus musculus [9] = species on record: Mus musculus; assay: Effective dose required to antagonize scopolamine-induced deficit in passive avoidance learning.; format: functional
Mus musculus [10] = assay: Compound was evaluated for toxicity up to 300 mg/kg; NT - No Toxicity; format: functional, organism-based; design: dose 300 mg/kg
Mus musculus [11] = assay: Percent inhibition of the number of pirenzepine-induced rotations in mice, on oral administration (0.3 mg/kg) 4 hr before the test; format: functional
Mus musculus [12] = species on record: Mus musculus; assay: Compound was tested for the ability to stimulate diacylglycerol formation antagonized by atropine.; format: functional, organism-based
[13] = target: T2, Muscarinic acetylcholine receptor M1 (Homo sapiens, UniProt P11229); assay: Compound was tested for its affinity for muscarinic M1 receptor
T2 sequence (P11229 whole entry): T1 sequence (P08482 whole entry) with V5A, S254T, S309P, K320R, G337A, V413I

Rattus norvegicus [14] = species on record: Rattus norvegicus; assay: Compound was tested for inhibitory concentration required for the K+ release of [3H]- GABA from rat striatal slices and reduced at 0.5 and 1 uM; format: functional
Rattus norvegicus [15] = assay: Effective dose required to potentiate haloperidol induced catalepsy in rats (p.o.); format: functional; settings: po
[16] = as §1; format: toxicity, organism-based; settings: mouse, in vivo

IC50 [1] [nM] | Compound | other results
4600 | c1ccc(Cc2cc(-c3ccccc3)nnc2NCCN2CCOCC2)cc1 | –
50 | CCCc1nnc(NCC(C)(C)N(CC)CC)cc1-c1ccccc1 | –
500 | Cc1cc(NCCCN(C)C)ccc1-c1ccccc1 | –
> 100000 | O=Cc1cc(-c2ccccc2)nnc1NCCN1CCOCC1 | –
1600 | CCCc1cc(NCCN2CCOCC2)nnc1-c1ccccc1 | –
20 | CCN1CCCC1CNc1cc(-c2ccccc2)c(C)nn1 (configuration not stated) | inhibition (Mus musculus [2]): inactive; inhibition (Mus musculus [3]): inactive
170 | c1ccc(-c2cc(NCCN3CCOCC3)nnc2-c2ccccc2)cc1 | –
17000 | Cc1cc(-c2ccccc2)nnc1NCCN1CCOCC1 [MINAPRINE] | –
> 100000 | Cc1cc(-c2ccccc2)nnc1NCCN1CCC(O)CC1 | –
240 | CCN(CC)CCNc1nnc(-c2ccccc2)cc1C | –
16000 | c1ccc(-c2cc(Cc3ccc4ccccc4c3)c(NCCN3CCOCC3)nn2)cc1 | –
1600 | CCc1cc(-c2ccccc2)nnc1NCCN1CCOCC1 | –
> 100000 | Cc1cc(-c2ccccc2)nnc1NCCN1CCOCC1=O | –
700 | Cc1c(NCCN2CCOCC2)nnc(-c2ccccc2)c1C | –
60 | CCCc1cc(NC2CCCN2CC)nnc1-c1ccccc1 (single isomer, unassigned; (+)) | –
140 | Cc1cc(NCCN(C)C)ccc1-c1ccccc1 | –
370 | c1ccc2c(c1)CCCc1cc(NCCN3CCOCC3)nnc1-2 | –
130 | CCCc1cc(NCC(C)(C)N(CC)CC)nnc1-c1ccccc1O | –
260 | CCN1CCCC1CNc1cc(C)c(-c2ccccc2)nn1 (configuration not stated) | –

IC50 [1] [nM] | Compound | other results
2000 | c1ccc2c(c1)CCCc1cc(NCCCN3CCOCC3)nnc1-2 | –
30 | CCCc1cc(NC2CCCN2CC)nnc1-c1ccccc1 (racemic) | –
2300 | CCN(CC)C(C)(C)CNc1cc(C)c(-c2ccccc2)nn1 | –
10 | CCCc1cc(NC2CCCN2CC)nnc1-c1ccccc1 (single isomer, unassigned; (-)) | –
6000 | Cc1cc(C2CCCCC2)nnc1NCCN1CCOCC1 | –
230 | Cc1cc(-c2ccccc2)nnc1NCCN(C)C | –
110 | CCCc1cc(NCC(C)(C)N(CC)CC)nnc1-c1ccccc1 | ED50 (Mus musculus [7]): 0.027 mg/kg; ED50 (Mus musculus [8]): 0.12 mg/kg; ED50 (Mus musculus [9]): 0.25 mg/kg; Activity (Mus musculus [10]): inactive; Inhibition (Mus musculus [11]): 51%; IC50 (Mus musculus [12]): 50000 nM; Ki [13]: 112 nM; IC50 (Rattus norvegicus [14]): 10000 nM; ED50 (Rattus norvegicus [15]): 0.1 mg/kg; Inhibition (Mus musculus [6]): 78%
7500 | Cc1cc(-c2ccc3ccccc3c2)nnc1NCCN1CCOCC1 | –
> 100000 | O=C(O)c1cc(-c2ccccc2)nnc1NCCN1CCOCC1 | –
60000 | N#Cc1cc(-c2ccccc2)nnc1NCCN1CCOCC1 [BAZINAPRINE] | –
800 | CCN1CCCC1CNc1nnc(-c2ccccc2)cc1C (configuration not stated) | –
600 | c1ccc(-c2cc(-c3ccccc3)c(NCCN3CCOCC3)nn2)cc1 | –
400 | CCN(CC)C(C)(C)CNc1cc(C2CC2)c(-c2ccccc2)nn1 | –
8 | CCN1CCCC1CNc1cc(C)c(-c2ccccc2O)nn1 (configuration not stated) | –
12000 | c1ccc(-c2ccc(NCCN3CCOCC3)nn2)cc1 | –
240 | CCN(CC)C(C)(C)CNc1cc(C)c(-c2ccccc2O)nn1 | –
4000 | Cc1cc(-c2cccs2)nnc1NCCN1CCOCC1 | –
180 | CCN(CC)C(C)(C)CNc1cc(-c2ccccc2)c(C)nn1 | Inhibition (Mus musculus [11]): 65%; Inhibition (Mus musculus [6]): 85%

Compound | IC50 [1] [nM] | other results
CCN(CC)C(C)(C)CNc1cc(-c2ccccc2)c(-c2ccccc2)nn1 | 40 | Inhibition (Mus musculus [4]): 87%; LD50 [5]: 250 mg/kg; Inhibition (Mus musculus [6]): 113%
CCN(CC)C(C)(C)CNc1cc(-c2ccccc2)c(CC(C)C)nn1 | 20 | LD50 [16]: 250 mg/kg
